Test results as given in patent US20090214669A1, “Combination anticancer therapy and pharmaceutical compositions therefore” (priority 2004, published 2009).
Entries after “also recorded” stand apart in the source; their conditions may differ. Read-outs that look alike come from different tables or passages of the source.

Columns and labels:
[1] = test system: spleen cells expressing CD4, CD8, and NK1.1; assay: Flow cytometric analysis of spleen cell subsets; format: in vivo, C57BL/6 mice; conditions: for NK (%): NK1.1 positive cells vs total spleen cells; for NK (%) / CD4^+ (%) / CD8^+ (%): mean ± S.E.M; for CD4^+ (%) / CD8^+ (%): positive cells vs total spleen cells
Procedure: Splenocytes from individual mice were analysed by flow cytometry. The following monoclonal antibodies were used for double fluorescence analysis of spleen cell subsets: fluorescein (FITC)-conjugated anti-mouse NK1.1 PE (PharMingen, San Diego, Calif.), PE-conjugated anti-mouse CD4 (PharMingen), FITC-conjugated anti-mouse CD8 (PharMingen). Approximately 1×10^6 spleen cells were resuspended in […] of CM and staining was performed at 4° C. for 30 minutes. Cells were then washed twice in PBS containing 0.02% sodium azide and flow cytometric analysis was performed using a FACscan flow cytometer (Becton Dickinson).
Fluorescence data were collected using a 488 nm excitation wavelength from a 15 mW air-cooled argon-ion laser. […] A minimum of 5,000 events were collected on each sample and acquired in list mode by a Hewlett Packard 9000 computer. To exclude dead cells, debris, non lymphoid cells, and cell aggregates, data collection was gated on live spleen lymphocytes by forward and side angle scatter. Data are represented as the percentage of positive cells over the total number of cells counted.

YAC-1 cells = assay: NK activity of spleen cells, 4-hour 51Cr-release assay; conditions: for NK activity (in words): B16 melanoma-injected mice; for NK % cytotoxicity: E/T ratio 25:1, mean ± S.E.
From the text: (§2) Mice were sacrificed by cervical dislocation on day 14 after tumour inoculation.
(§3) In vitro-passaged YAC-1 cells (a Moloney-virus induced mouse T cells lymphoma of A/SN origin), and in vivo-passaged B16 melanoma cells, were used as target cells in a chromium-release assay. B16 melanoma cells were obtained from tumour-bearing mice, seeded in cell-culture flasks (Falcon, Becton Dickinson and Co., Plymouth, England) and used within the first week of culture in CM. B16 and YAC-1 cell lines were obtained from the laboratory collection, and were originally obtained from the American Tissue Culture Collection (ATCC).
(§4) The cytotoxic activity of the effector cells collected from individual mice was measured by a standard 4-hour ^51Cr-release assay. Briefly, target cells were harvested from the cultures, washed twice, resuspended at 5×10^6 cells in 0.9 ml of CM and labelled with 100 μCi (^51Cr) sodium chromate (New England Nuclear, Boston, Mass.) for 1 hour at 37° C. in a 5% CO2 incubator. […] The effector cells suspension was added to quadruplicate wells to give three E/T ratios (i.e. 100:1, 50:1, 25:1) in a final volume of 200 μl per well. The plates were then incubated for 4 hours at 37° C. in a 5% CO2 incubator, 100 μl of supernatants were collected from each well, and the radioactivity was measured using a gamma counter. Total mean cytotoxicity±S.E.M. were calculated from quadruplicate cpm values from individual spleens.
It has been therefore measured the cytotoxic activity of splenocytes against NK-sensitive (YAC-1) tumour cells.

B16 melanoma cells = assay: Cytotoxic (CTL) activity of spleen cells against autologous tumour cells, 51Cr-release assay; conditions: for CTL % cytotoxicity: E/T ratio 25:1
From the text: as §2, §3, §4
It has been tested from spleen cells from normal and tumour-bearing mice for specific cytotoxic activity against autologous tumour cells using in-vivo passaged B16 melanoma cells as target.

B16 melanoma = B16 melanoma model: tumour growth and survival time; format: in vivo, C57BL/6 mice; conditions: CY 200 mg/Kg i.p. day 7; OM-174 1 mg/kg i.p. days 8, 13, 18, 23, 28; vs untreated controls
Procedure: Four to six weeks-old male C57BL/6 mice were purchased from Charles River (Calco, Corno, Italy). B 16 melanoma tumour cells were serially passaged subcutaneously (s.c.) in syngenic mice. On day 0, mice were injected s.c. in the right flank with 2×10^5 B16 melanoma cells. Tumour growth was measured daily in each mouse, using calipers, and mean tumour diameter per day was calculated. At day 7 after tumour injection, all mice with s.c. tumours of about 2-3 mm diameter were divided into different experimental groups, i.e. phosphate buffered saline (PBS)-injected control 3, CY, OM-174 or CY with OM-174.
Cyclophosphamide (Sigma, St. Louis, Mo.) was dissolved at 20 mg/ml in PBS immediately before use, and 0.2 ml per mouse were injected intraperitoneally. Each treated animal received a single dose of 200 mg/Kg CY on day 7.
Kaplan-Meier method was used to estimate the survivor functions and Log-rank test was performed for testing the homogeneity of survival functions across the four groups (control, CY, OM-174, CY+OM-174).
Tumor growth was analyzed by T-test for unpaired data.

[2] = test system: PROb subcutaneous colon tumors; format: in vivo, BDIX rats
PROb cells [3] = assay: PROb i.p. rat colon cancer model, 5-FU combined with OM-174: carcinomatosis classes, ascites, survival; format: in vivo; conditions: day 61; for Number of rats in carcinomatosis class 0: Class 0: no visible nodule, 5-FU 30 mg/kg i.p. days 7 and 14, OM-174 1 mg/kg i.v. from day 21, 10 injections; for Number of rats in carcinomatosis class 1: Class 1: some countable nodules with a diameter from 0.1 to 0.3 cm; for Number of rats in carcinomatosis class 2: Class 2: many uncountable nodules with a diameter from 0.1 to 0.3 cm; for Number of rats in carcinomatosis class 3: Class 3: some nodules with a diameter of 1 cm invade the peritoneal cavity; for Number of rats in carcinomatosis class 4: Class 4: the cavity is completely invaded by tumor masses of several cm; for Ascites: measured by double weights of the rats
Procedure: On day 0 (D0), 106 PROb cells were injected i.p. to each rat. 5-FU was administered i.p. at the dose of 30 mg/kg on days 7 and 14. OM-174 was injected at the dose of 1 mg/kg i.v. from day 21 three times a week for a total of 10 injections.
All rats (controls and treated) were sacrificed by CO2 on day 61. The efficacy of the treatment was determined by read-outs such as survival (FIG. 5) and measure of the classes of cancer given depending on the number and the size of the nodules, and also by ascites measurements. Carcinomatoses were evaluated blindly. As it is impossible to measure the volume of a carcinomatosis, they were classified according to the number and diameter of the nodules: • Class 0: no visible nodule • Class 1: some countable nodules with a diameter from 0.1 to 0.3 cm • Class 2: many uncountable nodules with a diameter from 0.1 to 0.3 cm • Class 3: some nodules with a diameter of 1 cm invade the peritoneal cavity • Class 4: the cavity is completely invaded by tumor masses of several cm.
The ascite volume was measured by double weights of the rats.

PROb cells [4] = assay: BDIX/PROb peritoneal carcinomatosis, cisplatin combined with OM-174, survival; format: in vivo, BDIX rats; conditions: cisplatin 3 mg/kg i.v. day 21; OM-174 1 mg/kg i.v., 5 injections every 5th day from day 28 or 35
Procedure: Colon cancer PROb cells were originally obtained from a tumor of a BDIX rat induced by 1,2-dimethylhydrazine.
The BDIX strain of rats was established in 1937 by H. Druckrey. Nowadays these rats come from Iffa-Credo (L'Asbresle, France).
BDIX rats, 4 months±1 month at the beginning of the experiment, 7 animals/group, received i.p. cultured syngenic PROb cells (i.p) on day 0. Cisplatin (3 mg/kg) was injected i.v. on day 21, and OM-174 treatment (1 mg/kg, 5 injections i.v. in the penile vein every 5th day) started either on days 28 or 35. Survival was followed until day 72 in the example presented here.
In this example, cisplatin (3 mg/kg i.v) is given on day 21. A further immunostimulating treatment with OM-174 is started only on day 28 or 35 (1 mg/kg, 5 injections i.v. every 5th day).

EMT-6 cells [5] = assay: NO production (nitrite, Griess method) by EMT-6 cells exposed to OM-174; format: cell-based, mouse; conditions: 16 hours
Procedure: (§1) Murine mammary adenocarcinoma EMT-6 cells were cultured in RPMI medium+10% bovine calf serum in plastic flasks. EMT-6 monolayer cultures grown to early confluence were exposed to OM-174 for 16 hours in both conditions (21% and 1% oxygen). After treatment with OM-174, nitrite determination using the classical Griess method was performed. Values were normalized for 200'000 cells per well.

ProB cells [6] = conditions: cited from earlier work
[7] = Single dose i.v. infusion study of OM-174 in cancer patients (tolerability, cytokines); format: in vivo
Procedure: Doses higher than 1 mg OM-174/m^2 by i.v. infusion were reached without unacceptable toxicity according to non-haematological grade III and haematological grade IV NCI Common Toxicity Criteria.
Secretion occurred in all steps, and appeared more “patient”- than “dose”-dependent.
The results of this single dose study led to the selection of three doses (0.6, 0.8, and 1.0 mg OM-174/m^2) for repeated i.v. injections (5 to 15 injections), used in a phase Ib study.

EMT-6 cells [8] = assay: Indirect radiosensitisation via OM-174-induced conditioned medium; format: cell-based, mouse; conditions: 3 μg/ml versus 0.3 μg/ml; conditioned medium from Whistar rats
[9] = Pharmacokinetic data of OM-174 in man; conditions: human, in vivo, median and range; for Vd: read-out: Vss
EMT-6 cells [10] = assay: Direct radiosensitisation of EMT-6 cells, 8-day colony formation assay; format: cell-based, mouse
Procedure: as §1
Cells were then collected by trypsinization and the radioresponse was estimated as described previously (Van der Berge et al., 2001) Briefly, micropellets (0.5×10^6 cells) were produced in conical tubes by centrifugation at 300 g for 5 min. Metabolic oxygen depletion in micropellets was induced by incubation at 37° C. for 3 minutes prior to radiation. Micropellets were irradiated with a linear accelerator at a rate of 2 Gy per min and the survival fraction (SF) after 5, 10, 15, and 20 Gy was measured by a 8-day colony formation assay.

[11] = B16 tumour-bearing mice, day 14
[12] = B16 tumour-bearing mice, day 14, CY 200 mg/Kg i.p. day 7, OM-174 1 mg/kg i.p. days 8 and 13, mean ± S.E.

O=P1(N(CCCl)CCCl)NCCCO1 (stereo not shown) [CY, cyclophosphamide, reference compound]
NK (%) [1, 11]: 4 ± 0.5% | CD4^+ (%) [1, 11]: 21.7 ± 1.8% | CD8^+ (%) [1, 11]: 6.4 ± 1.4% | NK activity (in words) (YAC-1 cells; day 14): decreased NK activity | NK % cytotoxicity (YAC-1 cells; B16 tumour-bearing mice, day 14, CY 200 mg/Kg i.p. day 7, OM-174 1 mg/kg i.p. days 8 and 13): 2.3 ± 0.4% | CTL % cytotoxicity (B16 melanoma cells; [12]): 2.63 ± 0.2% | Cytotoxic activity against autologous tumour cells (in words) (B16 melanoma cells; tumour-bearing mice): not to be increased | B16 tumour growth (in words, FIG. 1) (B16 melanoma): inhibited slightly but significantly | Survival time (MST) of mice (in words, FIG. 2) (B16 melanoma): increased slightly but significantly | Antitumoral effect of single treatment on large, established PROb tumors (in words, FIG. 3) ([2]; rat, in vivo): transient regression; also recorded: unable to cure animals | Number of cured animals/total number of animals ([2]; rat, in vivo): 0/6

CCCCCCCCCCCC(=O)O[C@H](CCCCCCCCCCC)CC(=O)N[C@@H]1C(O)[C@H](OP(=O)(O)O)C(CO)O[C@H]1OCC1O[C@H](OP(=O)(O)O)C(NC(=O)C[C@H](O)CCCCCCCCCCC)C(O)[C@@H]1O (stereo partly shown) [OM-174]
Number of rats in carcinomatosis class 0 (PROb cells [3]): 2 | Number of rats in carcinomatosis class 1 (PROb cells [3]): 3 | Number of rats in carcinomatosis class 2 (PROb cells [3]): 2 | Number of rats in carcinomatosis class 3 (PROb cells [3]): 2 | Number of rats in carcinomatosis class 4 (PROb cells [3]): 1 | Carcinomatosis classes versus Control group (Mann-Whitney test) (PROb cells [3]): significant difference | Ascites (PROb cells [3]): 1 mL | Antitumour activity / survival (in words, FIG. 4) (PROb cells [4]): anticancer effect is lost | NO production (in words, FIG. 6) (EMT-6 cells [5]; hypoxic (1% oxygen) condition): increased production of NO | NO production (in words, FIG. 6) (EMT-6 cells [5]; normal oxygen levels (21% oxygen)): low amounts of NO | NK (%) [1, 11]: 7.5 ± 0.5% | CD4^+ (%) [1, 11]: 27.0 ± 2.0% | CD8^+ (%) [1, 11]: 9.3 ± 1.8% | Percentages of CD4^+, CD8^+ and NK1.1 positive spleen cells (in words) ([1]; normal and tumour-bearing mice): increased the percentages | NK (%) ([1]; normal mice): 11.6 ± 2.1% | CD4^+ (%) ([1]; normal mice): 34.0 ± 2.5% | CD8^+ (%) ([1]; normal mice): 12.6 ± 1.5% | NK activity (in words) (YAC-1 cells; day 14): dramatic increase | cytotoxicity at 1 mg/kg (YAC-1 cells; Mus musculus, YAC-1, ip, read-out: NK % cytotoxicity): 6.3 ± 1.7% | NK cell activity (in words) (YAC-1 cells; normal mice, vs untreated controls): dramatic increase | NK % cytotoxicity (YAC-1 cells; normal mice, five mice): 10.39 ± 1.0 % | CTL % cytotoxicity (B16 melanoma cells; [12]): 5.6 ± 0.9% | CTL % cytotoxicity (B16 melanoma cells; normal mice): <1% | Cytotoxic activity against autologous tumour cells (in words) (B16 melanoma cells; tumour-bearing mice): marked stimulation of CTL activity | Increase of CTL activity with respect to tumour controls (B16 melanoma cells; tumour-bearing mice): two-fold increase | B16 tumour growth (in words, FIG. 1) (B16 melanoma): partially inhibits tumour progression; also recorded: inhibited slightly but significantly | Survival time (MST) of mice (in words, FIG. 2) (B16 melanoma): slightly extends the survival time; also recorded: increased slightly but significantly | Therapeutic activity per se (in words) (ProB cells [6]; treatment started up to 14 days after tumour induction, WO 95/14026): strong therapeutic activity | Complete remissions (ProB cells [6]; treatment starts 14 days after the injection of the cancer cells, peritoneal carcinomatoses): 90% | Tolerability [7]: well tolerated | Doses reached without unacceptable toxicity ([7]; i.v. infusion, non-haematological grade III and haematological grade IV NCI Common Toxicity Criteria): higher than 1 mg OM-174/m^2 | Cytokine secretion (TNF-α, IL-1b, IL-1ra, IL-6, IL-8, sTNF-RI, sTNF-RII, IL-10, IL-2, IL-2sRa, IFN-γ) ([7]; single dose study): secretion profile consistent with that of lipid A derivatives | Number of cured animals/total number of animals ([2]; CY 25 mg/kg i.p. day 36, i.t. immunostimulant from day 43 (OM-174 200 μg x12, CpG 100 μg x12, BCG days 43 and 50)): 1/6 | Antitumoral effect of single treatment on large, established PROb tumors (in words, FIG. 3) ([2]; agent alone, comparatively to untreated animals): no antitumoral effect | Effect of i.t. immunostimulant on the antitumor activity of CY (in words) ([2]; i.p. CY day 36 combined with i.t. immunostimulant from day 43): strongly enhanced | Complete and lasting tumor regression (animals) ([2]; i.p. CY day 36 followed by i.t. OM-174 from day 43): 4/6 | Indirect radiosensibilizing effect via conditioned medium (in words, FIG. 8) (EMT-6 cells [8]): clearly more radiosensibilizing | clearance ([9]; intravenous, Cancer patients): 1.7 mL/min | half-life ([9]; intravenous, Cancer patients): 20 h | Vd ([9]; intravenous, Cancer patients): 2.9 L | clearance ([9]; Healthy volunteers): 2.82 mL/min | half-life ([9]; Healthy volunteers): 23 h | Vd ([9]; Healthy volunteers): 5.1 L | Direct radiosensibilizing effect (in words, FIG. 7) (EMT-6 cells [10]; 21% versus 1% oxygen): directly radiosensibilizing agent for cancer cells only in hypoxic conditions | Lowering of the radiation dose necessary to kill 90% of the cells versus absence of OM-174 (EMT-6 cells [10]; hypoxic conditions, at either 3 or 30 mg/ml (FIG. 7)): 1.67

O=c1[nH]cc(F)c(=O)[nH]1 [5-FU, 5-Fluorouracil, reference compound]
Number of rats in carcinomatosis class 0 (PROb cells [3]): 2 | Number of rats in carcinomatosis class 1 (PROb cells [3]): 0 | Number of rats in carcinomatosis class 2 (PROb cells [3]): 0 | Number of rats in carcinomatosis class 3 (PROb cells [3]): 0 | Number of rats in carcinomatosis class 4 (PROb cells [3]): 8 | Carcinomatosis classes versus Control group (Mann-Whitney test) (PROb cells [3]): No significant difference | Ascites (PROb cells [3]): 44 mL

N.N.[Cl][Pt][Cl] [Cisplatin, cisplatin, reference compound]
Antitumour activity / survival (in words, FIG. 4) (PROb cells [4]): only partial efficacy
